Structures can show the parent of a compound that is named as a salt.
Q: For `O=C(N[C@H]1NC[C@H](CO)[C@@H](O)[C@@H]1O)C(F)(F)F` (as salt: hydrochloride) [Formula (X), 6-deacetamido-3-decarboxy-4-epi-3-hydroxymethyl-6-trifluoroacetamido-siastain B], which melting point is on record?
A: The melting point was 88 to 90 °C.

Q: For `CC(=O)NC1NCC(CO)C(O)C1O` (stereo not drawn) (as salt: hydrochloride) [Formula (V), 3-decarboxy-4-epi-3-hydroxymethyl-siastain B], which melting point is on record?
A: Its melting point is 201 to 202 °C (dec.).
